From PMC10611619, “[^99mTc]Tc-PentixaTec: development, extensive pre-clinical evaluation, and first human experience” (European Journal of Nuclear Medicine and Molecular Imaging, 2023)
Where two headings read alike, the source gives them in different places. Where a SMILES comes first, the peptide text is derived from it. Side-chain parts run from the residue outwards. [ ]: non-standard residue; d: D form. The star is where a group is joined. 2Nal = N[C@@H](Cc1ccc2ccccc2c1)C(=O)O; dNMeOrn = CN[C@H](CCCN)C(=O)O; 4Abz = Nc1ccc(C(=O)O)cc1; X1 = NCCNCC(CNCCN)C(=O)*; dDap = NC[C@@H](N)C(=O)O

What was measured:
[1] = In vitro stability in various media (radio-TLC); format: in vitro ADME; conditions: for percentage of intact tracer: original product formulation
Experimental: Solutions were incubated for up to 13 h at room temperature. Sequential radio-thin layer chromatography was performed after 20 min, 40 min, 100 min, 2.6 h, 3.6 h, 4.4 h, and 13 h of incubation, and the amount of intact ligand was analyzed by integration of the TLC chromatogram.

[2] = Blood clearance / excretion in patients; format: in vivo, human; conditions: for half-life: human, whole blood, iv
Experimental: [^99mTc]Tc-PentixaTec scans were performed using a dual head gamma camera (GE Discovery NM/CT 670 Pro, Milwaukee, WI, USA). In the four patients undergoing dosimetry, planar dynamic whole body scans were performed 5 min, 30 min, and 1 h with a bed speed of 30 cm/min; 2 h, 3 h, and 5 h with a speed of 12 cm/min; and 24 h with a speed of 5 cm/min after tracer injection. SPECT/CT imaging was performed following the 3-h planar imaging with 60 views and a frame duration of 8 s. Attenuation maps were generated on the basis of low-dose CT.
Venous blood samples (2.7 mL) were drawn directly before each planar scan. A cross-calibrated well-counter (Digibase, Ametek, Oak Ridge, TN, USA) was used to measure activity in the blood samples, resulting in the average activity per mL blood. Plasma half-life was calculated using NUKFIT software.

C[C@@H](NC(=O)[C@@H](CCCNC(=N)N)NC(=O)[C@@H](CN)NC(=O)C(CNCCN)CNCCN)C(=O)Nc1ccc(C(=O)NCCC[C@@H]2C(=O)N[C@@H](CCCNC(=N)N)C(=O)N[C@@H](Cc3ccc4ccccc4c3)C(=O)NCC(=O)N[C@H](Cc3ccc(O)cc3)C(=O)N2C)cc1 [[^99mTc]Tc-N4-L6-CPCR4, [^99mTc]Tc-N4-dap-r-a-Abz-CPCR4, metal not drawn] (cyclo([dY][dNMeOrn]([4Abz-dA-dR-dDap-X1])R[2Nal]G))
stability in saline and challenging conditions ([1]; diluted with saline, citrate and DTPA, room temperature): progressive decomposition | percentage of intact tracer ([1]; start): 94.5% | percentage of intact tracer ([1]; within 2.5 h): 90.6% | stability in physiological media ([1]; whole blood, serum, human serum albumin (2.5 and 5%), 13 h, room temperature): fully stable | hepatobiliary excretion [2]: no significant hepatobiliary excretion | half-life ([2]; read-out: plasma half-life, median): 19 min | half-life ([2]; read-out: plasma half-life, range): 15 to 25 min
